Test results published in ChEMBL document CHEMBL1201862, “PubChem BioAssay data set” (2004).
Active and inactive are the calls of the source.

Assays:
[1] = biological target: Voltage-dependent T-type calcium channel subunit alpha-1H (Homo sapiens, UniProt O95180); type: functional;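 further: channel activity triggered by adding a high calcium stimulation buffer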
[2] = biological target: T1, Adenosylmethionine-8-amino-7-oxononanoate aminotransferase (Mycobacterium tuberculosis, UniProt P9WQ81); experiment: Mycobacterium tuberculosis BioA enzyme inhibitor Measured in Biochemical System Using Plate Reader - 2163-02_Inhibitor_Dose_CherryPick_Activity.; type: functional, Mycobacterium tuberculosis UT205
T1 sequence (P9WQ81 whole entry): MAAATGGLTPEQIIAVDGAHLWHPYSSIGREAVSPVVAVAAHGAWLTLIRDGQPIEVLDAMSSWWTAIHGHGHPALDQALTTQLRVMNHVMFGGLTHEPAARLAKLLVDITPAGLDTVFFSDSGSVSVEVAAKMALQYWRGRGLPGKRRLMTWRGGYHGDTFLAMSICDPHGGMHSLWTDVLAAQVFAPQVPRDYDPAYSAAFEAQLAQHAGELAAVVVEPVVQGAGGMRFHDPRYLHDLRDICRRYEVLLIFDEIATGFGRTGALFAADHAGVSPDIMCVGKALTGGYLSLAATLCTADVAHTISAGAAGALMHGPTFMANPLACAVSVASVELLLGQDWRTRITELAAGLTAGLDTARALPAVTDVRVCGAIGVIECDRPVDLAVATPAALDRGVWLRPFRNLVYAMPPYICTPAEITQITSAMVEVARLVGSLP

[3] = biological target: Cytochrome P450 3A4 (Homo sapiens, UniProt P08684); conditions: Potency;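 further: confirmatory qHTS run detecting inhibitors and substrates of CYP3A4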
Sequence of Cytochrome P450 3A4 (P08684 whole entry): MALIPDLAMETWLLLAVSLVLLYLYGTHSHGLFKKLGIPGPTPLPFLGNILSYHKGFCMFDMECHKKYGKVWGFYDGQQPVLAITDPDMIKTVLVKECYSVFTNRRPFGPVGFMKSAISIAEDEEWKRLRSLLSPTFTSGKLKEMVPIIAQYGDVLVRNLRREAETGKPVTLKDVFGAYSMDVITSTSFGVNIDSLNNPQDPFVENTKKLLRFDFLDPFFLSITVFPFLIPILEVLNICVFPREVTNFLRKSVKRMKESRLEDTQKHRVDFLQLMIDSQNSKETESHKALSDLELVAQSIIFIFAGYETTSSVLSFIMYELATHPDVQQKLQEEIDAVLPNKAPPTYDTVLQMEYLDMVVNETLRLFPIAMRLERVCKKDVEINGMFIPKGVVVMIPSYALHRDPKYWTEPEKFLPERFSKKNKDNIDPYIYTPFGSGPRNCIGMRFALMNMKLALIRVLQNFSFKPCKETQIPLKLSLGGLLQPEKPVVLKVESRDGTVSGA

[4] = biological target: T2, Voltage-gated N-type calcium channel alpha-1B subunit/Amyloid beta A4 precursor protein-binding family A member 1 (Homo sapiens, UniProt Q00975+Q02410); type: protein assay
T2 sequence (Q00975 whole entry): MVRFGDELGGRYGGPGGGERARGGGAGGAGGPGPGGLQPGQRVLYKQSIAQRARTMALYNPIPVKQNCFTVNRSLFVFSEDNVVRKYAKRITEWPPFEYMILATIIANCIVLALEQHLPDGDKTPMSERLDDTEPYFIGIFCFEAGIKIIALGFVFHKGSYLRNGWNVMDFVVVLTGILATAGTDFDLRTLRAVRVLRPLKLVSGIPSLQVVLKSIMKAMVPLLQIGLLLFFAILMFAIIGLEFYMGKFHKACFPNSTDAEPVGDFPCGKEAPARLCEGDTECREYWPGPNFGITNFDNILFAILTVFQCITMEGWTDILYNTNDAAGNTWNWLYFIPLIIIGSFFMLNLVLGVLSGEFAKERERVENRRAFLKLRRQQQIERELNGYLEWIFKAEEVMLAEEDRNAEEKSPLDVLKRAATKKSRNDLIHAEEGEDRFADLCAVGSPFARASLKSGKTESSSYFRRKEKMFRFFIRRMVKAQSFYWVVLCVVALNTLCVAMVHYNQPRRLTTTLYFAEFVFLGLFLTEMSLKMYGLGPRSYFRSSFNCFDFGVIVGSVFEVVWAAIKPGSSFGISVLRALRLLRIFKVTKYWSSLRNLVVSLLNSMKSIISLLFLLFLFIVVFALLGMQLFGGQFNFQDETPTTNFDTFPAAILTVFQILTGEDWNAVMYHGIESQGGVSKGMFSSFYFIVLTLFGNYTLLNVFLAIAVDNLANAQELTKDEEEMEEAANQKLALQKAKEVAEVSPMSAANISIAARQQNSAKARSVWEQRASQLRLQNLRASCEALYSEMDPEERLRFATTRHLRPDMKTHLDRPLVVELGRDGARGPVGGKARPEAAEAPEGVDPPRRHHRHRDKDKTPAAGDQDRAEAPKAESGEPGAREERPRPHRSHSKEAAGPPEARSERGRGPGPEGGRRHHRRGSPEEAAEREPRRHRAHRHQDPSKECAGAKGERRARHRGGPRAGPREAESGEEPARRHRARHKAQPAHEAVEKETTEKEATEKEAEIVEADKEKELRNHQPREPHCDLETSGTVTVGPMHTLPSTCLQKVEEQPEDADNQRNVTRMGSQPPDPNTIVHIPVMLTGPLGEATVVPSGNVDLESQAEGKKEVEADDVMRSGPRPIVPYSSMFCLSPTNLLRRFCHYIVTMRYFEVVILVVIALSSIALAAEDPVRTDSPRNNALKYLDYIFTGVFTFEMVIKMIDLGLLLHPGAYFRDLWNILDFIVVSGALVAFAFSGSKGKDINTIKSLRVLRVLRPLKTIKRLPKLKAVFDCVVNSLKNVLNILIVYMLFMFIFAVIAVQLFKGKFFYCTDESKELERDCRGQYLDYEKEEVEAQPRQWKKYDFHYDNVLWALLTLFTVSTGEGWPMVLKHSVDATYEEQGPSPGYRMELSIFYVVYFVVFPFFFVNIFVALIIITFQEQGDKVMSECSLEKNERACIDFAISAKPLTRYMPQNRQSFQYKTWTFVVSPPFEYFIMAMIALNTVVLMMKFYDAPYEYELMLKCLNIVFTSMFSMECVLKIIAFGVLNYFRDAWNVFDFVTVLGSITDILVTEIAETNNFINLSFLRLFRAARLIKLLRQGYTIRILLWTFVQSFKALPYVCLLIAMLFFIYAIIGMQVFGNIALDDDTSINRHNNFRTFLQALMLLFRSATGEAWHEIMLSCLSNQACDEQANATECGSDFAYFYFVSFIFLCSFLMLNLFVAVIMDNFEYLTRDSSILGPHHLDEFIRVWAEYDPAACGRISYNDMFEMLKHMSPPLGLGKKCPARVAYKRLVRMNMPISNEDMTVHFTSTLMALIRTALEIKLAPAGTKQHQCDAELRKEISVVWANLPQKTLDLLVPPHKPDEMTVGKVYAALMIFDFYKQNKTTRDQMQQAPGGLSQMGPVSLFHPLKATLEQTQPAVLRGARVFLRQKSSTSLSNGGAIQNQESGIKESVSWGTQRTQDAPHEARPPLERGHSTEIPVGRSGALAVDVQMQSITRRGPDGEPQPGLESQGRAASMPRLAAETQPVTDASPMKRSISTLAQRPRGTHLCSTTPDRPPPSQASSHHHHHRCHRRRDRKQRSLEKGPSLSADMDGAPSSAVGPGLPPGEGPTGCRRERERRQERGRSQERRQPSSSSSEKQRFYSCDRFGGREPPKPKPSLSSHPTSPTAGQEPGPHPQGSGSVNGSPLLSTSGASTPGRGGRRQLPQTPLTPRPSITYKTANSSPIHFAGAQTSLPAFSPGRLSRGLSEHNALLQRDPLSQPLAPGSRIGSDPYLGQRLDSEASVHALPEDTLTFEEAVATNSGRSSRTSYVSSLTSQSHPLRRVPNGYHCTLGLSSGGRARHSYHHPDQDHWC
T2 sequence (Q02410 whole entry): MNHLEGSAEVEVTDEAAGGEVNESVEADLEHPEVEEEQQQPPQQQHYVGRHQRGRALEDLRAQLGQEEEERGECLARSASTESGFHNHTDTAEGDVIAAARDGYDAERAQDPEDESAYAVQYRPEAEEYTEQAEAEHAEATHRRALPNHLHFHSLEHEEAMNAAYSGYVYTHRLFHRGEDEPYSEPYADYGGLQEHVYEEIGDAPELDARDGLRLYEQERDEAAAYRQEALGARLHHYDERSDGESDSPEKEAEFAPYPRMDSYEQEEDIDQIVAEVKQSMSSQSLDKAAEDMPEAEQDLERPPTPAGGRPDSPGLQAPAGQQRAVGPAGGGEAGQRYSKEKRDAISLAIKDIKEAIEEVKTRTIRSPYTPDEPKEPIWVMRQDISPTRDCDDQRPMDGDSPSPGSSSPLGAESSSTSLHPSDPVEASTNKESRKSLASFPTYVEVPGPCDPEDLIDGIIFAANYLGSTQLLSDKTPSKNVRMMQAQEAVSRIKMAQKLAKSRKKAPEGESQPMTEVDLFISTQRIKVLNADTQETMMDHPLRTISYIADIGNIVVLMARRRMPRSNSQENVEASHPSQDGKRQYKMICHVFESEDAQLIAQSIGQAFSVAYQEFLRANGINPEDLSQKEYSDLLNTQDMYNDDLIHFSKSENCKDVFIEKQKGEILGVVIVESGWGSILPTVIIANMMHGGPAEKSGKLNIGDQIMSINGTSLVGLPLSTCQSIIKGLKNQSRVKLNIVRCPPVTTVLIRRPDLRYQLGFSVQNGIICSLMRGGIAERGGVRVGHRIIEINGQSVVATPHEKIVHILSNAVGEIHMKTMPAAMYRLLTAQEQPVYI

[5] = biological target: T2, Voltage-gated N-type calcium channel alpha-1B subunit/Amyloid beta A4 precursor protein-binding family A member 1; type: protein assay; remark: listed apart in the source
[6] = biological target: T3, Coagulation factor XII (Homo sapiens, UniProt P00748); type: functional;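 further: activated factor XIIa alpha cleaving a fluorogenic AMC peptide substrate; inhibitor potency from loss of enzyme activity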
T3 sequence (P00748 whole entry): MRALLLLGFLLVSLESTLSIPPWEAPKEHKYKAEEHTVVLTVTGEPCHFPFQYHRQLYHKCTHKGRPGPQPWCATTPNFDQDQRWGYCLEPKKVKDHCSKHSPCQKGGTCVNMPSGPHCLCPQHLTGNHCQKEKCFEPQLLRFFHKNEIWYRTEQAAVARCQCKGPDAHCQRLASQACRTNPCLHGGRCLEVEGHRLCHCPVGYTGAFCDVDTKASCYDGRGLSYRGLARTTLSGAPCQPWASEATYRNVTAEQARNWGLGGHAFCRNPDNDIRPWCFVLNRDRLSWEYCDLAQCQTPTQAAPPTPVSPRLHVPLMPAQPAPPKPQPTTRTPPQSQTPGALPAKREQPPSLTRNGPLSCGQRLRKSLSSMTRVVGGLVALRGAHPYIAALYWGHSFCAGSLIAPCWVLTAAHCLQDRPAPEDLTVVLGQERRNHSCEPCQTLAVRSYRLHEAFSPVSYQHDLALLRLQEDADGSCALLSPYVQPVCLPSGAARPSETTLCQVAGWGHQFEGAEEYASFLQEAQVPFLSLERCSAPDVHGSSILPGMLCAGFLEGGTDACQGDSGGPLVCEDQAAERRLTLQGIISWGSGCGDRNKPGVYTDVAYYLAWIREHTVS

[7] = biological target: Prothrombin (Homo sapiens, UniProt P00734); experiment: Thrombin 1536 HTS Dose Response Confirmation. [Related pubchem assays: 1046 (Thrombin 1536 HTS; hits were confirmed in this assay)]; type: functional
[8] = biological target: Cytochrome P450 2C9 (Homo sapiens, UniProt P11712)
[9] = biological target: T4, Calpain-2 catalytic subunit (Sus scrofa, UniProt P43367); experiment: m-calpain protease blockers, concentration series – biochemical, fluorogenic peptide substrate, dose response (AID 1420); type: functional
T4 sequence (P43367 whole entry): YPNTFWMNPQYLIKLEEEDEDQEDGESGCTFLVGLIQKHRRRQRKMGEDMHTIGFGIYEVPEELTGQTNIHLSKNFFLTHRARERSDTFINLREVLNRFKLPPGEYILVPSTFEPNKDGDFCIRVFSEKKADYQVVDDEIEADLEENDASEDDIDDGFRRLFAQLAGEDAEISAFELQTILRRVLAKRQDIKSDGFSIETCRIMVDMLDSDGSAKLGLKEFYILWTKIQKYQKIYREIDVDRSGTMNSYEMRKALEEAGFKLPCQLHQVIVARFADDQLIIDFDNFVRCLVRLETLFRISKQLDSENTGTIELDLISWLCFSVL

[10] = biological target: Heat shock protein HSP 90-alpha (Homo sapiens, UniProt P07900); type: functional, organism-based
[11] = IGROV1 cell killing – plate reader, dry powder samples, PAX8 inhibitor project, dose response (AID 743043); type: functional, cell-based; conditions: IGROV-1
[12] = biological target: Paired box protein Pax-8 (Homo sapiens, UniProt Q06710); experiment: PAX8 transcriptional activity inhibition in RMG-I – RMG-I cells, luciferase, cherry-pick, dose response (AID 687027); type: functional, cell-based;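 further: luciferase reporter driven by Pax8 target thyroperoxidase promoter measured by SteadyGlo luminescence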
Sequence of Paired box protein Pax-8 (Q06710 whole entry): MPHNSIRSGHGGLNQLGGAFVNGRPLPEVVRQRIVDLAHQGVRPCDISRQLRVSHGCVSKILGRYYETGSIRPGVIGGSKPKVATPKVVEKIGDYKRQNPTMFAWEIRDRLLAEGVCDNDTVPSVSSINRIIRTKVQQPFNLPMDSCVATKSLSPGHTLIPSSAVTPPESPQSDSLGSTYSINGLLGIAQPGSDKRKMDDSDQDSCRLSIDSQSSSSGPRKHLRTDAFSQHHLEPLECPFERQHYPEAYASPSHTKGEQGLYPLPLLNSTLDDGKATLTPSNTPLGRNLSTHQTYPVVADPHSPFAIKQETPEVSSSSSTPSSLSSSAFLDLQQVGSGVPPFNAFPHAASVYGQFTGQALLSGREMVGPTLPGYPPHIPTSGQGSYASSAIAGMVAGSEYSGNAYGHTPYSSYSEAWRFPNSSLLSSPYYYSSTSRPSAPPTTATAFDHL

[13] = OVCAR8 cell viability loss – plate reader, dry powder samples, PAX8 project, dose response (AID 743197); type: functional, cell-based; conditions: OVCAR-8
[14] = tested on: HeLa; experiment: ATP-based viability loss in HeLa cells – cell-based, CellTiter-Glo luminescence, cherry-pick samples, cytotoxicity control for MITF activator project, dose response (AID 540259); type: functional; conditions: Homo sapiens
[15] = tested on: Streptococcus sp. 'group A'; experiment: Streptococcus pyogenes SK(-)GAS viability under kanamycin – luminescence, BacTiterGlo, confirmation, counter-screen for streptokinase expression inhibitor project, dose response (AID 1900); type: functional, organism-based
[16] = tested on: Streptococcus; experiment: GAS UMAA2166 growth inhibition – luminescence, BacTiterGlo, counter-screen for streptokinase expression inhibitor project, dose response (AID 1915); type: functional, organism-based;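 further: potency for reduction of bacterial viability or growth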
[17] = Luminescence Cell-Based Dose Confirmation HTS to Identify Activators of 5'UTR Stem-Loop Driven Alpha-Synuclein mRNA Translation in H4 Neuroglioblastoma Cells. [Related pubchem assays: 1829 (Project Summary), 1814 (Primary HTS)]; type: functional
[18] = tested on: H4; experiment: Luminescence Cell-Based Dose Response HTS to Identify Activators of 5'UTR Stem-Loop Driven Prion Protein mRNA Translation in H4 Neuroglioblastoma Cells. [Related pubchem assays: 1829 (Project Summary), 1814 (Primary HTS)]; type: functional; conditions: Homo sapiens
[19] = Luminescence Cell-Based Dose Response HTS to Identify Activators of Luciferase Translation or Activity in H4 […] Cells. [Related pubchem assays: 1829 (Project Summary), 1814 (Primary HTS)]; type: functional
[20] = biological target: Genome polyprotein (dengue virus type 2, UniProt P29990); experiment: flavivirus cap methylation enzyme inhibition – biochemical, confirmation dose response, primary screen (AID 588689); type: functional
Sequence of Genome polyprotein (P29990 2492-3391 limits assumed): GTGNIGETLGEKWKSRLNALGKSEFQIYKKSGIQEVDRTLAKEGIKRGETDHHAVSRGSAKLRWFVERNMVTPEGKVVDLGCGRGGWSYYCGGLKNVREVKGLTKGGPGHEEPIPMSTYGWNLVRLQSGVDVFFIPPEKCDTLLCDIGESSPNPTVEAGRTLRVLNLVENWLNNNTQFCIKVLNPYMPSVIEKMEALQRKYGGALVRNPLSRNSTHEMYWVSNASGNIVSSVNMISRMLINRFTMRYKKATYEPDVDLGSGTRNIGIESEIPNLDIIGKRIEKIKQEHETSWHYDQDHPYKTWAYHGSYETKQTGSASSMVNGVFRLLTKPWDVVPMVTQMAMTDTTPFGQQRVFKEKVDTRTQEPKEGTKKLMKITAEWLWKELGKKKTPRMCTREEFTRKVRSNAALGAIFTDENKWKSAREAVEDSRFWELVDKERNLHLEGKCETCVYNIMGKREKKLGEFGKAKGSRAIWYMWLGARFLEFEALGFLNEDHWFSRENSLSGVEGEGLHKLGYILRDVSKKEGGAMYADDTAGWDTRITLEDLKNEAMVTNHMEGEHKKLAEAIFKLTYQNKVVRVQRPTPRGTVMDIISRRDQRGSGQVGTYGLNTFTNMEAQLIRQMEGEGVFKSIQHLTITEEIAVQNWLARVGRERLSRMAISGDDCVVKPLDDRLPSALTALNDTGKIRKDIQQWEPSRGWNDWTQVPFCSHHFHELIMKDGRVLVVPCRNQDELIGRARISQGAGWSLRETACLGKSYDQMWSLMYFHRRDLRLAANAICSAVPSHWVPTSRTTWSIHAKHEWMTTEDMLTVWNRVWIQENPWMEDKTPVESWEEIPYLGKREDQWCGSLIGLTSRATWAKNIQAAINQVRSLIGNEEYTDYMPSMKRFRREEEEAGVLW

[21] = biological target: T5, Zinc finger protein mex-5 (Caenorhabditis elegans, UniProt Q9XUB2); experiment: potency of MEX-5 RNA-binding blockers – biochemical, C. elegans, fluorescence polarization, dose response (AID 1960)
T5 sequence (Q9XUB2 whole entry): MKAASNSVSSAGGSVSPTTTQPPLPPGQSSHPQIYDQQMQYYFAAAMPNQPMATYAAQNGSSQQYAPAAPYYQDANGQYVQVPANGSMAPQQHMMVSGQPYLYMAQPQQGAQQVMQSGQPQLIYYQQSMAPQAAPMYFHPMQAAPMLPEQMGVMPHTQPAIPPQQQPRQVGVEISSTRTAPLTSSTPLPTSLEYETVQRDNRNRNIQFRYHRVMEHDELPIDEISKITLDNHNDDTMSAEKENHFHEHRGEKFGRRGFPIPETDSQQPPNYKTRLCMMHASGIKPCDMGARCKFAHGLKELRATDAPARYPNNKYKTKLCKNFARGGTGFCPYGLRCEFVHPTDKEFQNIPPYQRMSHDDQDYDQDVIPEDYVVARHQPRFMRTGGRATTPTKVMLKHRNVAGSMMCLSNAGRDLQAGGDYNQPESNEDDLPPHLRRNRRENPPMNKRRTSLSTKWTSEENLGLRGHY

[22] = biological target: T6, RNA-binding protein pos-1 (Caenorhabditis elegans, UniProt G5EF15); experiment: disruptors of C. elegans POS-1 RNA interaction – biochemical, fluorescence polarization, dose response (AID 1964);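 further: purified POS-1 fused to maltose binding protein made in E. coli; potency of compounds blocking POS-1 binding to fluorescent RNA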
T6 sequence (G5EF15 whole entry): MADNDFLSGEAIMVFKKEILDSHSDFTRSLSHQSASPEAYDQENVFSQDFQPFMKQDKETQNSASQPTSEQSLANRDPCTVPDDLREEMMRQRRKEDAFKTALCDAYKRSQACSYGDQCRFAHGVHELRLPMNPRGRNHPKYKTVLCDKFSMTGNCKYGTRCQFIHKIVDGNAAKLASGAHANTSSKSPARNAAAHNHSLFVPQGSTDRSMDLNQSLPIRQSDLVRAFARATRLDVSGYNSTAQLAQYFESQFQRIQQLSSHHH

[23] = biological target: T7, High affinity choline transporter 1 (Homo sapiens, UniProt Q9GZV3); experiment: human choline transporter blockers, potency – cell-based, 5-point CRC, membrane potential dye, dose response (AID 504840); type: functional
T7 sequence (Q9GZV3 whole entry): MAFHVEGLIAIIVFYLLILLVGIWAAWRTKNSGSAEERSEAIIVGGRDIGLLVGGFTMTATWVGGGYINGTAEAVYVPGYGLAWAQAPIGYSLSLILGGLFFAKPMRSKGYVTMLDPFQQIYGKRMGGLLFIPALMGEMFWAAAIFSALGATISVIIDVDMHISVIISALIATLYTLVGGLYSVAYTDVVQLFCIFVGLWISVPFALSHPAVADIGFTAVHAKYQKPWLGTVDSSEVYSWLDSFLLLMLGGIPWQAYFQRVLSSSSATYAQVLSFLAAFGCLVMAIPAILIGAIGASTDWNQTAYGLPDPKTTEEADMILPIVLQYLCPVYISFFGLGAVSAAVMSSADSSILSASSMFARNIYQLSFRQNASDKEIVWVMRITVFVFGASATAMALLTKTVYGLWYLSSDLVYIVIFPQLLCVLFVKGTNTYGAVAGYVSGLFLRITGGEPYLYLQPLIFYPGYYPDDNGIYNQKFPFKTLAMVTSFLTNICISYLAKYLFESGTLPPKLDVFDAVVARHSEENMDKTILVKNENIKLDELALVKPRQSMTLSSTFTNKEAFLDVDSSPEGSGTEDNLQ

## O=c1c2ccccc2nc(N2CCN(c3ccccc3)CC2)n1Cc1ccccc1
[1]
  EC50: 9.51 µM (active)

## CN1c2ccc(-c3ccccc3)cc2[C@H]2[C@H](CCN2C(=O)c2ccccc2F)[C@H]1CO
[2]
  AC50: 0.183 µM (active)

## O=[N+]([O-])c1ccc2c3c(cccc13)CC2
[3]
  AC50: 31.6 µM (inconclusive)

## C[C@]12CC[C@@H]3c4ccc(OC(=O)c5ccccc5)cc4CC[C@H]3[C@@H]1CCC2=O
[3]
  AC50: 7.94 µM (inconclusive)

## COc1cc(NC(=O)c2ccc(F)cc2)ccc1NC(=O)c1cc2ccccc2o1
[4]
  IC50: > 50 µM (inactive)
[5]
  IC50: 4.02 µM (active)

## CCn1c(C)nc2cc(C(=O)NN=C(S)Nc3ccc(C)cc3)ccc21
[6]
  IC50: > 50 µM (inactive)
[7]
  IC50: > 50 µM (not active)

## Nc1c(Br)cc([N+](=O)[O-])cc1[N+](=O)[O-]
[3]
  AC50: 25.1 µM (inconclusive)

## O=C(Cc1cccs1)Nc1nnc(CCc2ccccc2)s1
[7]
  IC50: 25.4 µM (active)

## CCOC(=O)C(/C=N/c1cccc(C)c1C)=C(/O)OCC
[8]
  AC50: inconclusive
[7]
  IC50: > 50 µM (not active)
[9]
  IC50: 14 µM (not active)

## COc1ccc(Cl)cc1NC(=O)c1nnn(CC(=O)Nc2ccc(OC)c(OC)c2)c1N
[4]
  IC50: > 50 µM (inactive)
[5]
  IC50: > 56.8 µM (not active)

## COc1ccc2nc(NC(=O)/C=C/c3ccc4c(c3)OCO4)sc2c1
[4]
  IC50: 41.5 µM (active)
[5]
  IC50: 19.5 µM (active)

## CC[C@H](C)/C=C(C)/C=C/C1=CC2=C(Cl)C(=O)[C@](C)(OC(C)=O)C(=O)C2=CO1 [SCLEROTIORIN]
[10]
  AC50: 0.8 µM (active)

## CCCC(=O)n1nc(-c2cccnc2)nc1NCc1ccccc1
[7]
  IC50: 0.00538 µM (active)

## COC(=O)c1ccccc1NC(=O)C1CC(=O)N(c2ccc(F)cc2)C1 (stereo unspecified)
[7]
  IC50: > 50 µM (not active)

## C[C@H](CO)N1C[C@H](C)[C@@H](CN(C)Cc2ccc(Oc3ccccc3)cc2)Oc2ccc(NS(=O)(=O)c3ccc(F)cc3)cc2CC1=O
[11]
  AC50: 40 µM (active)
[12]
  AC50: 6.47 µM (active)
[13]
  AC50: 63.3 µM (active)

## O=C1c2ccccc2NC(c2cccc(Cl)c2)N1N=C1CCCCCC1 (stereo unspecified)
[14]
  AC50: 200 µM (active)

## CN(C[C@H]1N[C@@H](CO)[C@@H]1c1ccc(-c2cccc(F)c2)cc1)S(C)(=O)=O
[11]
  AC50: 14.9 µM (active)
[12]
  AC50: 10.3 µM (active)
[13]
  AC50: 23.7 µM (active)

## Cc1cc(/C=C2\SC(=S)NC2=O)c(C)n1-c1ccc(O)cc1
[15]
  EC50: 1.69 µM (active)
[16]
  EC50: 2.36 µM (active)
[10]
  AC50: 15.5 µM (active)

## CCc1nc2sc3c(=O)cc(O)[nH]c3c2cc1C
[4]
  IC50: 24.8 µM (active)
[5]
  IC50: > 56.8 µM (not active)

## c1ccn(-c2ccc(-c3cc[nH]n3)cc2)c1
[14]
  AC50: 90.9 µM (active)

## O=C(CSCc1ccc(Cl)cc1)NCc1ccc2c(c1)OCO2
[1]
  EC50: 4.2 µM (active)

## CC1=C(C(=O)OCc2ccccc2)C(c2ccc(C3CCCCC3)cc2)NC(=O)N1CCCCCC(=O)O (stereo unspecified)
[3]
  AC50: 7.94 µM (inconclusive)

## CCOC(=O)c1ccc(NC(=O)CC2C(=O)OCCN2CC)cc1 (stereo unspecified)
[10]
  AC50: 4.65 µM (active)

## O=C(CNc1ccccc1OC(F)F)N1CCc2ccccc21
[17]
  EC50: 0.103 µM (active)
[18]
  EC50: 4.45 µM (active)
[19]
  EC50: 6 µM (active)
[14]
  AC50: 72.1 µM (active)

## CC1=NOC(=O)/C1=C\c1ccc2c(c1)OCO2
[20]
  IC50: 7.17 µM (active)
[21]
  EC50: > 300 µM (not active)
[22]
  EC50: > 300 µM (not active)

## O=[N+]([O-])c1ccc(S(=O)(=O)Nc2nc(-c3ccccc3)cs2)cc1
[20]
  IC50: 59.6 µM (active)
[23]
  IC50: 4.57 µM (active)

## COc1cc(/C=N/O)ccc1OCc1ccccc1Cl
[14]
  AC50: 40.7 µM (active)
